Values joined by “and” are separate entries in the source; they are usually repeats but may differ in a detail not shown here. Identical values can stand only once.
Tests used:
Test in all cases: biochemical
CAMK2D = CAMK2D (Homo sapiens, UniProt Q13557)
CSNK1E = CSNK1E (Homo sapiens, UniProt P49674)
EPHB4 = molecular target: T1, EPHB4 (Homo sapiens, UniProt P54760)
T1 sequence (P54760 1-987): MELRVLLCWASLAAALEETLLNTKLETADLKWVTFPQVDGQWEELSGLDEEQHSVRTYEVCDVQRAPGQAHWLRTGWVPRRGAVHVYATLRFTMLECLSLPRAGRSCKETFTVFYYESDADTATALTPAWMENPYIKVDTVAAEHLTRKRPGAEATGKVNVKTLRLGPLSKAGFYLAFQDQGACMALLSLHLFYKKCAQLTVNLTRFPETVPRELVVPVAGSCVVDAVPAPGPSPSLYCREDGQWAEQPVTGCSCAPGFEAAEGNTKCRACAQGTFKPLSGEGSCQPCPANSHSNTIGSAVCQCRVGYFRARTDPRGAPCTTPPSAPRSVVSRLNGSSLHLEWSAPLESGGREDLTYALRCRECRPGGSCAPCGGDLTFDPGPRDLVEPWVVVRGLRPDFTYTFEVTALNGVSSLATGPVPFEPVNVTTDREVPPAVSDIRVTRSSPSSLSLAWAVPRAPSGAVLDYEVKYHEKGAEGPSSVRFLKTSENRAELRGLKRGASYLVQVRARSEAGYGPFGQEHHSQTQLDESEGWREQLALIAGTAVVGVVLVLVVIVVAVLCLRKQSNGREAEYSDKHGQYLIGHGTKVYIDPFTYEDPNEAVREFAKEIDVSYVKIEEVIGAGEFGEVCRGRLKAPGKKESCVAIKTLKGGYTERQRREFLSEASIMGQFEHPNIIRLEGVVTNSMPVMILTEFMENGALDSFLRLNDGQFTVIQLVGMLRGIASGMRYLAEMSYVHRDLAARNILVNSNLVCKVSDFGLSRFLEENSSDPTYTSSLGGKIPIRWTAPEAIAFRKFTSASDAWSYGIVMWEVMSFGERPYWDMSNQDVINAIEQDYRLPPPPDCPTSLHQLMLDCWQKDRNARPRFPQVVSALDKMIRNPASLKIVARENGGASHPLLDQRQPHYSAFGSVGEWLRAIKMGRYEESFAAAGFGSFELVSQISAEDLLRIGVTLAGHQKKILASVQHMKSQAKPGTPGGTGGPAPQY

MERTK = molecular target: T2, MERTK (Homo sapiens, UniProt Q12866)
T2 sequence (Q12866 1-999): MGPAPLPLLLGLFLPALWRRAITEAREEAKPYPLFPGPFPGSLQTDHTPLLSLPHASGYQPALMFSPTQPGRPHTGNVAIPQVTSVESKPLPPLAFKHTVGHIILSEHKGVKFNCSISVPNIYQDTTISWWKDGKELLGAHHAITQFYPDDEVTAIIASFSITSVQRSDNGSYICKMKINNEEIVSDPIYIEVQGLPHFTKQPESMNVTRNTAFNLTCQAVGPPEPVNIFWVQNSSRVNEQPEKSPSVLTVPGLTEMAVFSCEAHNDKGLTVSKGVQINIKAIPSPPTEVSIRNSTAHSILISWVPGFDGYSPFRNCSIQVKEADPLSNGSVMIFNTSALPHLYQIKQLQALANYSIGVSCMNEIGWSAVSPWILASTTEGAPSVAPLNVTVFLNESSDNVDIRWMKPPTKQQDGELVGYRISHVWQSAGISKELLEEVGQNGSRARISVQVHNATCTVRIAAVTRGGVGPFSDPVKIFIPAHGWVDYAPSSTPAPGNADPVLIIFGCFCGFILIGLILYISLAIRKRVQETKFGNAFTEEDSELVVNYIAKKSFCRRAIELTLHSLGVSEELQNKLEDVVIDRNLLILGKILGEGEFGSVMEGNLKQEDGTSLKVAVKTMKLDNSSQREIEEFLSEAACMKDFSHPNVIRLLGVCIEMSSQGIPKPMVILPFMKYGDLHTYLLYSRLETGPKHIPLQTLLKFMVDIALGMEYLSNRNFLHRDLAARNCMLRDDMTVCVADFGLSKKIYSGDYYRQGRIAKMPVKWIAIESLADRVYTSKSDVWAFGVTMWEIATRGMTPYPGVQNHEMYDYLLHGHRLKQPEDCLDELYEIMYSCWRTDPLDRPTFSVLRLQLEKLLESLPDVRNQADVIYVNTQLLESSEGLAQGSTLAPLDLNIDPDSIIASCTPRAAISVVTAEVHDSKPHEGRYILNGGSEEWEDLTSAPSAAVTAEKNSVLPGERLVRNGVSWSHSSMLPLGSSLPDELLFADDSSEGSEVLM

PRKX = molecular target: T3, PRKX (Homo sapiens, UniProt P51817)
T3 sequence (P51817 1-358): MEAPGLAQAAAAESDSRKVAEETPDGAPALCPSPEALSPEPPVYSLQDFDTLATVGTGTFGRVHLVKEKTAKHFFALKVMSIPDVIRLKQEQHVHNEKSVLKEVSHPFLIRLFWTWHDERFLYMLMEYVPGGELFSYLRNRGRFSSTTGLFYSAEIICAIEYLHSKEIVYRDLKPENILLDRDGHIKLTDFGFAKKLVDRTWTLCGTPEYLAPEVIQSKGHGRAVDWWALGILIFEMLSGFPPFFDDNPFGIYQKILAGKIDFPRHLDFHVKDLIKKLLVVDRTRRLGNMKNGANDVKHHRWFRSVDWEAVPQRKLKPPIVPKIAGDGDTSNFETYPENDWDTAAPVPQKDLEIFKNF

PTK2 = PTK2 (Homo sapiens, UniProt Q05397)
STK39 = STK39 (Homo sapiens, UniProt Q9UEW8)
TYK2 = TYK2 (Homo sapiens, UniProt P29597)
Chain of TYK2 (P29597 whole entry): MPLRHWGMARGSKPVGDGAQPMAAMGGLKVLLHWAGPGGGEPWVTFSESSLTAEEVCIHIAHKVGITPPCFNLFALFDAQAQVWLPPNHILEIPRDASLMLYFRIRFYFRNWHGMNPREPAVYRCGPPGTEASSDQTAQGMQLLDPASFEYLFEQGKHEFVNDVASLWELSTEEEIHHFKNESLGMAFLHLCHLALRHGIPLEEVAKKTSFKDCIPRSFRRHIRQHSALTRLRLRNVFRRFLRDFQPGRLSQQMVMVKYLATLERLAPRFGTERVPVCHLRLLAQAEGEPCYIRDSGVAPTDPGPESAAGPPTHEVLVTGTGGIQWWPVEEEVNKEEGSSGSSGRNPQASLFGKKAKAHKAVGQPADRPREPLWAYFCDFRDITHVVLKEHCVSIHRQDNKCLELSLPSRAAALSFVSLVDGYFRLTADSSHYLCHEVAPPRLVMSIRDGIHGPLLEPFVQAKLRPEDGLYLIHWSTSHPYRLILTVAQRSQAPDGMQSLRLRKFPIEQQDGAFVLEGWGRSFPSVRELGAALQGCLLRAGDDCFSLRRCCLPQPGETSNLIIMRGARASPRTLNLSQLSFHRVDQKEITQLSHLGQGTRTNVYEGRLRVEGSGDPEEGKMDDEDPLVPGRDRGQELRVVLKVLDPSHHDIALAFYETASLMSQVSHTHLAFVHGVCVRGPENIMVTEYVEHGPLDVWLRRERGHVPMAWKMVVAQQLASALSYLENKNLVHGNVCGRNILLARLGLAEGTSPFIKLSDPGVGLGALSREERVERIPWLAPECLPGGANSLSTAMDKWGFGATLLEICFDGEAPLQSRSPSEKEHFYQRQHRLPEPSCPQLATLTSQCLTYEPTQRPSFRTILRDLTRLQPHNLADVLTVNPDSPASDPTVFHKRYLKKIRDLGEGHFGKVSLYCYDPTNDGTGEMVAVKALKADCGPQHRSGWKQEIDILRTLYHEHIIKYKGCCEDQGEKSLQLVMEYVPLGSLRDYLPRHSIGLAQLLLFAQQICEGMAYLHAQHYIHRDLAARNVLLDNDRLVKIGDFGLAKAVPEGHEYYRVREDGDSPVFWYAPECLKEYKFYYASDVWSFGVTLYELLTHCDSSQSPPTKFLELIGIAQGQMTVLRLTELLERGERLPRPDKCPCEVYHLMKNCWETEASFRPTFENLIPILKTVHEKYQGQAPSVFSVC

Chain of CSNK1E (P49674 whole entry): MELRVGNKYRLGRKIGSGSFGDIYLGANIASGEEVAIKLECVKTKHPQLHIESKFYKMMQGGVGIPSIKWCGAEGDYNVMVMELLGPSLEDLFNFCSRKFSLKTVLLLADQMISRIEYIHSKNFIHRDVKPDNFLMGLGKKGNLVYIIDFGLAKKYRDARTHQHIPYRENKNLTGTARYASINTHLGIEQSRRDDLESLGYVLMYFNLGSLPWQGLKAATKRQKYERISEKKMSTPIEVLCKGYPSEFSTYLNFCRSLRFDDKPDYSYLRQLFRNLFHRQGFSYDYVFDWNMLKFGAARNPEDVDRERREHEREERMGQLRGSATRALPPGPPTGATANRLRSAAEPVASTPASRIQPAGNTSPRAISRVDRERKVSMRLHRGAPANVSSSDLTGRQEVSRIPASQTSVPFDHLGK
Chain of PTK2 (Q05397 whole entry): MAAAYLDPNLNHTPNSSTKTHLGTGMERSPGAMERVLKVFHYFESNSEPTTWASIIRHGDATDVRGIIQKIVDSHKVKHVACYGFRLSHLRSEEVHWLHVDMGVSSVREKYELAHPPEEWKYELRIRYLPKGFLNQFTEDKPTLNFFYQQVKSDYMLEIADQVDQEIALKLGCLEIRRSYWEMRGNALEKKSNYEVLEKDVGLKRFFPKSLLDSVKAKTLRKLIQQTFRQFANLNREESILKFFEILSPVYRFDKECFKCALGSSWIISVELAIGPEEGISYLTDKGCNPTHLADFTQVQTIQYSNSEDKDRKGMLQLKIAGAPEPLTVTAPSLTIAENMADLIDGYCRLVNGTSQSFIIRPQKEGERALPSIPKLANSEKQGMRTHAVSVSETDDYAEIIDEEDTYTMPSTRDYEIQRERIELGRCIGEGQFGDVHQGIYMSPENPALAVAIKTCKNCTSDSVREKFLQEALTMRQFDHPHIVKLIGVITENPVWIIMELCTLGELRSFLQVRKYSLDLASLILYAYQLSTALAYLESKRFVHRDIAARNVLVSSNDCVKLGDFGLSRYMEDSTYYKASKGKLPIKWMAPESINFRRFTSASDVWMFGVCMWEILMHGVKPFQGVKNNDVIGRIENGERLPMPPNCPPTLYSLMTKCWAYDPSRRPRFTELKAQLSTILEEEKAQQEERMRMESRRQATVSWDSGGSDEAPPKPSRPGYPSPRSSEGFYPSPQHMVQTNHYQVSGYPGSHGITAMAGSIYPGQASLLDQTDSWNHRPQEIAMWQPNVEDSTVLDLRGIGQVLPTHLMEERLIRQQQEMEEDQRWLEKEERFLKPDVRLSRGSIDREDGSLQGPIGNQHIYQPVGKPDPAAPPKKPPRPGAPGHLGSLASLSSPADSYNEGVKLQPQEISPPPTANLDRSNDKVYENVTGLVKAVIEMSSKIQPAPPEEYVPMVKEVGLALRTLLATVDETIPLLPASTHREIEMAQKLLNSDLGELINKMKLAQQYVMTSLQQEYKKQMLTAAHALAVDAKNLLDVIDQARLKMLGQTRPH
Chain of CAMK2D (Q13557 whole entry): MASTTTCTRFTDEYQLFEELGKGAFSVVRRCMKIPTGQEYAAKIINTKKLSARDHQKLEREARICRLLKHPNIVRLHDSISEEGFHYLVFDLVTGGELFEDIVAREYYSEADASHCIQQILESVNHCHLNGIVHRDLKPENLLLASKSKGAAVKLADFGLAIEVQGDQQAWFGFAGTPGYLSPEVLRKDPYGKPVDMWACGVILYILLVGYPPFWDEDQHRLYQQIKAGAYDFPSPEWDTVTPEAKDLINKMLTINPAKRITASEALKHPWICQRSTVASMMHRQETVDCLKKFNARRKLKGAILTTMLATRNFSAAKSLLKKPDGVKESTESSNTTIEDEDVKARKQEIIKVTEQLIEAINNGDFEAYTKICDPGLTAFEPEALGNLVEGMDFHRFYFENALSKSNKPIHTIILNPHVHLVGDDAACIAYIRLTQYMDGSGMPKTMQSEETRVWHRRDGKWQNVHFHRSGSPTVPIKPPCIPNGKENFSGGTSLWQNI

Row | SMILES | IC50 (CAMK2D) | IC50 (CSNK1E) | IC50 (EPHB4) [nM] | IC50 (MERTK) [nM] | IC50 (PRKX) [nM] | IC50 (PTK2) | IC50 (STK39) [nM] | IC50 (TYK2)
1 | CN(C)CC(O)COc1ccc(Nc2ncc([N+](=O)[O-])c(Nc3ccccc3O)n2)cc1.O=C(O)C(F)(F)F (stereo not drawn) [TCMDC-141399] | > 20000 nM | > 20000 nM | > 20000 | 1100 | > 20000 | 90 nM and 97 nM | 5500 | 1900 nM
2 | Cl.NCC1(c2nc(-c3ccc(Cl)c(O)c3)c(-c3ccncc3)[nH]2)CCCCC1 [TCMDC-141154] | > 20000 nM | 330 nM | 5300 | 9300 | > 20000 | > 20000 nM | > 20000 | > 20000 nM
3 | CN1CCN(c2ccc(Nc3ncc(C#N)c(Nc4ccccc4C(N)=O)n3)cc2)CC1.Cl [TCMDC-134116] | 1900 nM and 960 nM | 1600 nM and 4100 nM | 4300 | 630 | 1300 | 44 nM and 58 nM | 67 | 100 nM and 92 nM

Source: paper PMC4774911, “Biochemical Screening of Five Protein Kinases from Plasmodium falciparum against 14,000 Cell-Active Compounds” (PLoS ONE, 2016)
